Results published in EP0771560A1, “Use of 2- N-(1,2-benzoisothiazolyl-3(2H)one-1,1-dioxide ethyl 5-ethoxycarbonyl-2,4,6-trimethyl-1,4-dihydropiridine-3-carboxylate in the treatment of vascular disorders” (LABORATORIOS ALTER, S.A., priority 1995, dated 1997).
Like-named read-outs stand apart in the source and are kept apart here.

Tests used:
smooth muscle cells = settings: from J. Bernhardt et al. (1993); cited from earlier work
A10 cells = assay: Inhibition of smooth muscle cell proliferation induced by bovine fetal serum (DNA synthesis by inclusion of BrdU); type: cell-based, rat; settings: for inhibition at 50 µM / inhibition at 0.5 µM / inhibition at 5 µM: Rattus norvegicus; for % LABELED CELLS (Average ± S.D.): 10% bovine fetal serum, BrdU inclusion
Procedure: In these experiments a rat aorta smooth muscle cell line obtained from American Type Culture Collection (ATCC;A10 CRL 1476) was used. The cells were grown in a humidified atmosphere (37^º C; 95% air - 5% CO2) in Dulbecco's Modified Eagle Medium (DMEM) containing 10 % bovine fetal serum supplemented with 20 mM L-glutamine, 100 IU/ml penicillin, 100 µg/ml streptomycin and 0.25 µg/ml Amphotericin B (antibiotic-antimycotic solution, Gibco). The medium was replaced every two days.
To study the effect of PCA-4230 and of the other compounds, the DNA synthesis was measured by deterimining the inclusion of BrdU (an analogue of thymidine). The cells were isolated by trypsinization (trypsin 0.05% in EDTA 0.02%) and were seeded on glass cover-glasses in culture plates of 24 cups, at a density of 10^4 cells per cup. The cells were grown for 24 hours in DMEM with 10% BFS to allow adhesion of the cells to the slides. Afterwards, the cells were washed with serum-free DMEM containing 0.2% bovine serum albumin (BSA). They were incubated for 48 hours in the same medium to obtain quiescent cells. Afterwards, proliferation was induced by replacement of the medium by DMEM containing 10% bovine fetal serum, along with the vehicle or drugs at the suitable concentrations (0.5 to 50 µM for PCA-4230 and 50 µM for the rest of the compounds): The cells were grown in these conditions for 16 hours and, afterwards, BrdU was added and the culture was continued for two to three hours.

[1] = test system: atheromatous smooth muscle cells (ASA); assay: Intracellular communication: transference of Lucifer Yellow dye after microinjection, atheromatous cells; type: cell-based, human; settings: 0.4 µM (200 ng/ml for PCA-4230), incubated for 1 hour
Excerpt: (§1) Materials and Methods. Non-arteriosclerotic aorta smooth muscle cells (NASA), obtained from biopsies of organs to be used in heart transplants were used. The atheromatous smooth muscle cells (ASA) were obtained from biopsies obtained from arteriosclerotic arteries coming from aorta reconstruction. These biopsies were used as a source for cultures by explant, avoiding the use of enzymatic additives or detergents. The cells were left to grow until confluence, in M199 medium, supplemented with 5% BFS and antibiotics as in the previous example. The pureness of the cultures was determined by specific staining of the same with anti-α actin of smooth muscle cells.
(§2) Intracellular communication was studied by evaluating the transference of the fluorescent dye Lucifer Yellow from a single cell, in which it is inserted by microinjection, to the surrounding cells. The extent of this transference of dye was determined in 40 normal cells and in 100 atheromatous cells.
(§3) The same experiment was carried out with Verapamyl 0.4 µM, used as a standard drug with calcium antagonist activity and with 0.02% dimethylsulfoxide, the vehicle used in both cases.
(§4) The same study was repeated with the vehicle and with Verapamyl.

[2] = Phase II Clinical Trial, Internal Report; result in words; cited from earlier work
gap junctions = assay: Freeze Fracture Electron Microscopy (FFEM) of gap junction morphology; type: cell-based, human; settings: cells treated with PCA-4230, result in words
Excerpt: Subsequently, the cells were fixed with glutaraldehyde and were studied by FFEM "Freeze Fracture Electron Microscopy" to determine the morphology of the gap junctions. The cells were frozen at -110^º C and were fractured. The breakage planes are the planes with less resistance that correspond to the surface of the inside membrane, between lipid bilayers.

[3] = test system: c-fos and c-jun proto-oncogenes; assay: Expression of c-fos and c-jun proto-oncogenes (Northern hybridization of total RNA) in serum-stimulated cells; type: cell-based, rat; settings: 5x10^-5M; cells stimulated for 30 minutes with 10% FCS; result in words
Procedure: The expression of the c-fos and c-jun proto-oncogenes was analyzed in cells fasted for 48h (cultured in serum-free DMEM, containing BSA 0.2%) and subsequently stimulated for 30 minutes with 10% FCS in the presence of absence of PCA-4230 (5x10^-5M). The total RNA was extracted from said cells using a previously described method (P Chomczynski and N. Sacchi (1987), Ann. Biochem. 162: 156-159).
Immediately, the extracted RNA (10 µg) was resolved by eletrophoresis in agarose gel (1.2% agarose + formaldehyde + formamide). The gel was then transferred to a nylon membrane and this was hybridized with specific probes for c-fos and c-jun (previously labeled with [^32P]-deoxy CTP). The membrane was finally exposed to a sensitive film (Kodak X-OMAT) for 8-17 hours at -70^º C. The level of expression of the oncogenes was brought back to normal by using a specific probe for β-actin.

[4] = test system: Non-arteriosclerotic aorta smooth muscle cells (NASA); assay: Intracellular communication: transference of Lucifer Yellow dye after microinjection, normal cells; type: cell-based, human; settings: NORMAL (HEALTHY) cells, 0.4 µM, incubated for 1 hour
Excerpt: as §1, §2, §3, §4

[5] = Table Ib, 50,0 µM/L, two experiments in triplicate
[6] = Table Ib, 50,0 µM/L, versus vehicle
[7] = A10, Table Ib, 50,0 µM/L, versus vehicle, read-out: % INHIBITIÓN

CC(=O)Oc1ccccc1C(=O)O [ASPIRIN, aspirin, reference compound]
aspirin concentrations at which inhibition of the proliferation of smooth muscle cells is achieved (smooth muscle cells): higher than 270 µM
inhibition at 50 µM (A10 cells; A10, read-out: % INHIBITIÓN): 25.5%
% LABELED CELLS (Average ± S.D.) (A10 cells; [5]): 22.2 ± 1,8%
% INHIBITIÓN (A10 cells; [6]): weak inhibitory effect

COc1ccc(CCN(C)CCCC(C#N)(c2ccc(OC)c(OC)c2)C(C)C)cc1OC (stereo not drawn) [VERAPAMYL, Verapamyl, reference compound]
N° CELLS LABELED BY INJECTION [1]: 7,20 ± 0,54
N° CELLS LABELED BY INJECTION ([1]; listed as Verapamyl): did not show any significant effects

CCOC(=O)C1=C(C)NC(C)=C(C(=O)OCCN2C(=O)c3ccccc3S2(=O)=O)C1C (stereo not drawn) [PCA-4230]
hypolipidemic effect [2]: moderate hypolipidemic effect
N° CELLS LABELED BY INJECTION [1]: 2.42 ± 0.34
morphology, distribution and number of the gap junctions (gap junctions): No differences were observed
transcription of the c-fos and c-jun proto-oncogenes [3]: suppressive effect
N° CELLS LABELED BY INJECTION [4]: 2,40 ± 0,18
cell proliferation induced by bovine fetal serum (A10 cells; 0.5 to 50 µM, result in words): inhibited cell proliferation induced by bovine fetal serum proportionally to the concentration
inhibition at 0.5 µM (A10 cells; A10, Table Ia, 0,5 µM/L, versus vehicle, read-out: % INHIBITIÓN): 26.1%
inhibition at 5 µM (A10 cells; A10, Table Ia, 5,0 µM/L, versus vehicle, read-out: % INHIBITIÓN): 53.2%
inhibition at 50 µM (A10 cells; A10, Table Ia, 50,0 µM/L, versus vehicle, read-out: % INHIBITIÓN): 95.1%
inhibition at 0.5 µM (A10 cells; A10, Table Ib, 0,5 µM/L, versus vehicle, read-out: % INHIBITIÓN): 25%
inhibition at 5 µM (A10 cells; A10, Table Ib, 5,0 µM/L, versus vehicle, read-out: % INHIBITIÓN): 57.4%
inhibition at 50 µM (A10 cells; [7]): 87.9%
% LABELED CELLS (Average ± S.D.) (A10 cells; Table Ia, 0,5 µM/L, three experiments in triplicate): 15,0 ± 2,3%
% LABELED CELLS (Average ± S.D.) (A10 cells; Table Ia, 5,0 µM/L, three experiments in triplicate): 9,5 ± 1,1%
% LABELED CELLS (Average ± S.D.) (A10 cells; Table Ia, 50,0 µM/L, three experiments in triplicate): 1,0 ± 0,6%
% LABELED CELLS (Average ± S.D.) (A10 cells; Table Ib, 0,5 µM/L, two experiments in triplicate): 22,3 ± 0,9%
% LABELED CELLS (Average ± S.D.) (A10 cells; Table Ib, 5,0 µM/L, two experiments in triplicate): 12,7 ± 1,4%
% LABELED CELLS (Average ± S.D.) (A10 cells; [5]): 3,6 ± 0,3%

Clc1ccccc1CN1CCc2sccc2C1 [THICLOPYD., Thiclopydine, reference compound]
inhibition at 50 µM (A10 cells; [7]): 17.1%
% LABELED CELLS (Average ± S.D.) (A10 cells; [5]): 24,7 ± 1,5%
% INHIBITIÓN (A10 cells; [6]): weak inhibitory effect
